Drawing on PubChem BioAssay (NCI), this text covers TGI for 30 compounds.

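Values below derive from 48-hour exposures of cells grown in 96-well plates, with endpoints linearly interpolated between the two concentrations bracketing the appropriate inhibition level. TGI: total growth inhibition.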

The first experiment deals with A498 renal. The experiment can be described thus: NCI anticancer screen, dose series, 48 h.
For `CC(=O)NNc1nc(C)c(C(=O)NNC(=O)C(=O)Nc2c(Cl)cc([N+](=O)[O-])cc2Cl)s1`, the TGI was 66.3 µM.
Still for that read-out and setting: to `Nc1cccc2cc(Cl)cnc12` belongs greater than 100 µM; to `CCOC(=O)C1=C(C)NC(=S)NC1c1ccccc1` (stereo not drawn), greater than 100 µM; to `N.N.N.N.O=[N+]([O-])[O-].[Co+3].[N-]=[N+]=[N-].[N-]=[N+]=[N-]`, greater than 100 µM.
For the compound `COC(=O)[C@H](Cc1c[nH]c2ccccc12)NP(=O)(O)OCC1C=CC(n2cc(C)c(=O)[nH]c2=O)O1` (stereo partly drawn), the TGI is greater than 100 µM.
In turn, `CCC12C=CCN3CCC4(C(=C(C(=O)OC)[C@@H]1O)Nc1ccccc14)C32` (stereo partly drawn) had a TGI of 5.28 µM.

In another experiment the test system is COLO 205 colon. The experiment can be described thus: NCI anticancer screen, dose series, 48 h.
As for `COc1cc([C@@H]2OCC3C(c4ccc5c(c4)OCO5)OCC32)cc(OC)c1OC` (stereo partly drawn), the TGI was greater than 100 µM.
For `O=C1CCC23CC(C=CC=C12)n1c(=O)n(-c2ccccc2)c(=O)n13` (stereo not drawn), the TGI was greater than 100 µM.
Regarding `C[C@]12CC[C@H](O)CC1=CC[C@@H]1C2CC[C@]2(C)C(=O)N(N)C(=O)CC12` (stereo partly drawn), the TGI is greater than 100 µM.
In turn, `O=c1[nH][nH]c(=O)n1Cc1ccccc1Cn1c(=O)[nH][nH]c1=O` displayed a TGI greater than 100 µM.
With `O=C(NNC(=O)c1ccccc1SSc1ccccc1C(=O)NNC(=O)c1ccccc1S)c1ccccc1S`, the TGI was greater than 100 µM.
Take `Cc1ccccc1-n1c(=O)c2ncn(CCCl)c2n(-c2ccccc2C)c1=S`: the TGI was greater than 100 µM.
With `N#CN=C(N(Cc1ccccc1)Cc1ccccc1)N(Cc1ccccc1)Cc1ccccc1`, the TGI is greater than 100 µM.
Same read-out and setting: to `[N-]=[N+]=Nc1cc(=O)oc2ccccc12` belongs greater than 100 µM; to `CNC(=O)C(C)C1CCC2(C)C=CC(=O)C(C)=C2C1O` (stereo not drawn), greater than 64.7 µM.
On the same count and under the same terms, to `Cc1cccc2c(=O)cc(-c3ccccc3)[nH]c12` belongs 51.5 µM.
On to `CCCN=C1CCN(Cc2ccccc2)c2ccccc2N1`, for which the TGI worked out at 22.9 µM.
For `CCN(CC)CCC(=O)Nc1ccc2c(c1)C(=O)c1ccc(NC(=O)CCN(CC)CC)cc1C2=O`, the TGI is 14.4 µM.
`Oc1ccc(-c2nc(-c3cccnc3)c(-c3ccc(F)cc3)[nH]2)cc1` came in with a TGI of 36.8 µM.
`CC(C)CCCCCCCCCCCCC(=O)NCC(=O)NC1C(C)OC(Nc2ncnc3c2ncn3C)C(O)C1O` (stereo not drawn) had a TGI greater than 100 µM.
Still for that read-out and setting: to `CCCCCCCCCCCOc1ccc(C(=O)C(=O)c2ccc(OCCCCCCCCCCC)c(OCCCCCCCCCCC)c2)cc1OCCCCCCCCCCC` belongs greater than 100 µM.
`CC(N)Cc1ccc(C(=O)Cl)cc1` (stereo not drawn) returned a TGI greater than 100 µM.
For the compound `Cc1cn(C2CC(N(O)C(N)=O)C(CO)O2)c(=O)[nH]c1=O` (stereo not drawn), the TGI was greater than 100 µM.
Same read-out and setting: to `COc1nc(N)c(C(=O)CCl)c(=O)n1C` belongs 30.1 µM; to `CC1C=C(CCCCCCCCCCCC[C@@H](O)[C@@H]2CC[C@@H]([C@@H]3CC[C@@H](C(O)CCCCCCCCCCCCC4=C[C@H](C)OC4=O)O3)O2)C(=O)O1` (stereo partly drawn), greater than 100 µM; to `O=C1c2ccccc2C2C1N2C(=O)C(F)(F)F` (stereo not drawn), greater than 100 µM.
Compound `CC(=O)NC1=C(NCCC(C)C)C(=O)c2ccccc2C1=O` showed a TGI greater than 50 µM.
The compound `O=C(Cc1cccs1)N[C@@H]1C(=O)N2C(C(=O)OC(c3ccccc3)c3ccccc3)=C(CO)CS[C@H]12` displayed a TGI greater than 100 µM.
In turn, `COc1ccc2c(=O)c(O)c(-c3ccc(OC)c(OC)c3)oc2c1` returned a TGI greater than 100 µM.
Compound `CC(=O)NNc1nc(C)c(C(=O)NNC(=O)C(=O)Nc2c(Cl)cc([N+](=O)[O-])cc2Cl)s1` displayed a TGI greater than 100 µM.
In the case of `Nc1cccc2cc(Cl)cnc12`, the TGI is greater than 100 µM.
The same measure, in the same setting: to `CCOC(=O)C1=C(C)NC(=S)NC1c1ccccc1` (stereo not drawn) belongs greater than 60.7 µM; to `N.N.N.N.O=[N+]([O-])[O-].[Co+3].[N-]=[N+]=[N-].[N-]=[N+]=[N-]`, greater than 100 µM.
Compound `COC(=O)[C@H](Cc1c[nH]c2ccccc12)NP(=O)(O)OCC1C=CC(n2cc(C)c(=O)[nH]c2=O)O1` (stereo partly drawn) had a TGI greater than 100 µM.
As to `CCC12C=CCN3CCC4(C(=C(C(=O)OC)[C@@H]1O)Nc1ccccc14)C32` (stereo partly drawn), the TGI is 3.22 µM.
The same measure, in the same setting: to `CC(=O)Nc1ccc(-c2nnc(SCC(=O)Nc3ccc([N+](=O)[O-])cc3)o2)cc1` belongs 27.3 µM.

The test system of another experiment is CAKI-1 renal. The experiment can be described thus: NCI anticancer screen, dose series, 48 h.
Take `COc1cc([C@@H]2OCC3C(c4ccc5c(c4)OCO5)OCC32)cc(OC)c1OC` (stereo partly drawn): the TGI was greater than 100 µM.
`O=C1CCC23CC(C=CC=C12)n1c(=O)n(-c2ccccc2)c(=O)n13` (stereo not drawn) gave a TGI greater than 83.4 µM.
Compound `C[C@]12CC[C@H](O)CC1=CC[C@@H]1C2CC[C@]2(C)C(=O)N(N)C(=O)CC12` (stereo partly drawn) had a TGI greater than 100 µM.
`O=c1[nH][nH]c(=O)n1Cc1ccccc1Cn1c(=O)[nH][nH]c1=O` showed a TGI greater than 100 µM.
`O=C(NNC(=O)c1ccccc1SSc1ccccc1C(=O)NNC(=O)c1ccccc1S)c1ccccc1S`: the TGI is greater than 100 µM.
The compound `Cc1ccccc1-n1c(=O)c2ncn(CCCl)c2n(-c2ccccc2C)c1=S` gave a TGI greater than 100 µM.
Turning to `N#CN=C(N(Cc1ccccc1)Cc1ccccc1)N(Cc1ccccc1)Cc1ccccc1`, the TGI is greater than 100 µM.
The same measure, in the same setting: to `[N-]=[N+]=Nc1cc(=O)oc2ccccc12` belongs greater than 100 µM; to `CNC(=O)C(C)C1CCC2(C)C=CC(=O)C(C)=C2C1O` (stereo not drawn), 91.7 µM; to `CCCN=C1CCN(Cc2ccccc2)c2ccccc2N1`, 63.9 µM.
Take `CCN(CC)CCC(=O)Nc1ccc2c(c1)C(=O)c1ccc(NC(=O)CCN(CC)CC)cc1C2=O`: the TGI was 14.7 µM.
On to `Oc1ccc(-c2nc(-c3cccnc3)c(-c3ccc(F)cc3)[nH]2)cc1`, for which the TGI came to 78.6 µM.
In turn, `CC(C)CCCCCCCCCCCCC(=O)NCC(=O)NC1C(C)OC(Nc2ncnc3c2ncn3C)C(O)C1O` (stereo not drawn) yielded a TGI of 5.6 µM.
In turn, `CCCCCCCCCCCOc1ccc(C(=O)C(=O)c2ccc(OCCCCCCCCCCC)c(OCCCCCCCCCCC)c2)cc1OCCCCCCCCCCC` had a TGI greater than 100 µM.
Compound `CC(N)Cc1ccc(C(=O)Cl)cc1` (stereo not drawn) returned a TGI greater than 100 µM.
In turn, `Cc1cn(C2CC(N(O)C(N)=O)C(CO)O2)c(=O)[nH]c1=O` (stereo not drawn) gave a TGI greater than 100 µM.
Compound `COc1nc(N)c(C(=O)CCl)c(=O)n1C` registered a TGI of 23.4 µM.
On the same count and under the same terms, to `CC1C=C(CCCCCCCCCCCC[C@@H](O)[C@@H]2CC[C@@H]([C@@H]3CC[C@@H](C(O)CCCCCCCCCCCCC4=C[C@H](C)OC4=O)O3)O2)C(=O)O1` (stereo partly drawn) belongs greater than 100 µM.
The same measure, in the same setting: to `O=C1c2ccccc2C2C1N2C(=O)C(F)(F)F` (stereo not drawn) belongs greater than 100 µM; to `O=C(Cc1cccs1)N[C@@H]1C(=O)N2C(C(=O)OC(c3ccccc3)c3ccccc3)=C(CO)CS[C@H]12`, greater than 100 µM; to `COc1ccc2c(=O)c(O)c(-c3ccc(OC)c(OC)c3)oc2c1`, 13 µM.
Take `Nc1cccc2cc(Cl)cnc12`: the TGI was greater than 100 µM.
`CCOC(=O)C1=C(C)NC(=S)NC1c1ccccc1` (stereo not drawn) yielded a TGI greater than 41.2 µM.
`COC(=O)[C@H](Cc1c[nH]c2ccccc12)NP(=O)(O)OCC1C=CC(n2cc(C)c(=O)[nH]c2=O)O1` (stereo partly drawn) gave a TGI greater than 100 µM.
Same read-out and setting: to `CCC12C=CCN3CCC4(C(=C(C(=O)OC)[C@@H]1O)Nc1ccccc14)C32` (stereo partly drawn) belongs 7.18 µM.
Same read-out and setting: to `CC(=O)Nc1ccc(-c2nnc(SCC(=O)Nc3ccc([N+](=O)[O-])cc3)o2)cc1` belongs 27.5 µM.

The next experiment concerns MCF7 breast. The experiment can be described thus: NCI anticancer screen, dose series, 48 h.
Consider `O=C1CCC23CC(C=CC=C12)n1c(=O)n(-c2ccccc2)c(=O)n13` (stereo not drawn), for which the TGI was 32.3 µM.
